Measurements from patent US11753407B2, “Compounds for treating spinal muscular atrophy” (PTC Therapeutics, Inc., priority 2012, dated 2023).

Assays:
[1] = test system: SMN2 minigene mRNA (SMN2-A minigene) in HEK293H cells; experiment: SMN2 minigene mRNA splicing RT-qPCR assay in cultured cells; assay type: cell-based, human; settings: Homo sapiens, HEK293-H; concentration increasing full length SMN2 mRNA 1.5-fold relative to vehicle-treated cells; HEK293H cells with SMN2-A minigene, 24 hours, 7-point concentration data; read-out: EC1.5x for production of full length SMN2 mRNA
How it was run: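 EC1.5× values derive from a 24 h treatment of SMN2-A minigene HEK293H cells and GAPDH-normalized RT-qPCR of exon 7-included minigene mRNA relative to vehicle-treated cells.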

[2] = test system: Smn protein in SMA patient fibroblast cells (GM03813); experiment: Smn protein assay in cultured cells (SMN HTRF); assay type: cell-based, human; settings: SMA patient fibroblast cells, 48 hours; for EC1.5x for Smn protein expression: 7-point concentration curve, SMN HTRF, concentration producing 1.5 times Smn protein vs DMSO vehicle control; for maximum fold (Fold) increase of Smn protein: 7-point concentration data, fold relative to vehicle control
How it was run: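 Cells were cultured 72 h, seeded at 5,000/well and dosed with seven concentrations (3.16-fold apart) for 48 h. HTRF on lysates, read at 665 and 620 nm, gave blank-corrected ΔF values relative to DMSO. Potency is reported as EC1.5×, efficacy as maximal fold Smn increase.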

melting point [°C] | Structure (SMILES) | EC (1.5-fold increase) [1] [µM] | EC1.5x for Smn protein expression [2] | maximum fold (Fold) increase of Smn protein [2]
244 to 253 | Cc1cn2nc(-c3cc(=O)n4cc(N5CCN(C)[C@H](C)C5)cc(C)c4n3)cc2c(C)n1 [Compound 510, 7-[(3R)-3,4-dimethylpiperazin-1-yl]-2-(4,6-dimethylpyrazolo[1,5-a]pyrazin-2-yl)-9-methyl-4H-pyrido[1,2-a]pyrimidin-4-one] | < 0.1 | **** (an EC1.5x≤0.3 μM is indicated by four stars (****)) | ***** (a fold increase >1.65 is indicated by five stars (*****))
292 to 296 | Cc1cn2cc(-c3cc(=O)n4cc(C5CCN(C)CC5)ccc4n3)cc(Cl)c2n1 [Compound 517, 2-(8-chloro-2-methylimidazo[1,2-a]pyridin-6-yl)-7-(1-methylpiperidin-4-yl)-4H-pyrido[1,2-a]pyrimidin-4-one] | < 0.1 | **** (an EC1.5x≤0.3 μM is indicated by four stars (****)) | ***** (a fold increase >1.65 is indicated by five stars (*****))
253 to 255 | CCN1CCC(c2ccc3nc(-c4ccc5nn(C)cc5c4)cc(=O)n3n2)CC1 [Compound 523, 7-(1-ethylpiperidin-4-yl)-2-(2-methyl-2H-indazol-5-yl)-4H-pyrimido[1,2-b]pyridazin-4-one] | < 0.1 | **** (an EC1.5x≤0.3 μM is indicated by four stars (****)) | ***** (a fold increase >1.65 is indicated by five stars (*****))
289 to 291 | Cc1cn2cc(-c3cc(=O)n4nc(C5CCN(C)CC5)ccc4n3)cc(Cl)c2n1 [Compound 524, 2-(8-chloro-2-methylimidazo[1,2-a]pyridin-6-yl)-7-(1-methylpiperidin-4-yl)-4H-pyrimido[1,2-b]pyridazin-4-one] | 0.1 to 0.3 | *** (an EC1.5× between >0.3 μM and ≤1 μM is indicated by three stars (***)) | ***** (a fold increase >1.65 is indicated by five stars (*****))

The next lines start with the compound.

Structure (SMILES) | melting point [°C] | EC (1.5-fold increase) [1] [µM] | EC1.5x for Smn protein expression [2] | maximum fold (Fold) increase of Smn protein [2]
CN1CC=C(c2cn3c(=O)cc(-c4ccc5c(cnn5C)c4)nc3cn2)CC1 [Compound 506, 2-(1-methyl-1H-indazol-5-yl)-7-(1-methyl-1,2,3,6-tetrahydropyridin-4-yl)-4H-pyrazino[1,2-a]pyrimidin-4-one] | 234 to 236 | < 0.1 | **** (an EC1.5x≤0.3 μM is indicated by four stars (****)) | **** (a fold increase between >1.5 and ≤1.65 is indicated by four stars (****))
Cc1cn2nc(-c3cc(=O)n4cc(N5CCN[C@H](C)C5)cc(C)c4n3)cc2c(C)n1 [Compound 509, 2-(4,6-dimethylpyrazolo[1,5-a]pyrazin-2-yl)-9-methyl-7-[(3R)-3-methylpiperazin-1-yl]-4H-pyrido[1,2-a]pyrimidin-4-one] | 213 to 222 | < 0.1 | *** (an EC1.5× between >0.3 μM and ≤1 μM is indicated by three stars (***)) | **** (a fold increase between >1.5 and ≤1.65 is indicated by four stars (****))
CCN1CCN(c2cc(C)c3nc(-c4cc5c(C)nc(C)cn5n4)cc(=O)n3c2)C[C@H]1C [Compound 511, 2-(4,6-dimethylpyrazolo[1,5-a]pyrazin-2-yl)-7-[(3R)-4-ethyl-3-methylpiperazin-1-yl]-9-methyl-4H-pyrido[1,2-a]pyrimidin-4-one] | 240 to 245 | < 0.1 | ** (an EC1.5× between >1 μM and ≤3 μM is indicated by two stars (**)) | **** (a fold increase between >1.5 and ≤1.65 is indicated by four stars (****))
Cc1cn2nc(-c3cc(=O)n4nc(C5CCN(C)CC5)ccc4n3)cc2c(C)n1 [Compound 513, 2-(4,6-dimethylpyrazolo[1,5-a]pyrazin-2-yl)-7-(1-methylpiperidin-4-yl)-4H-pyrimido[1,2-b]pyridazin-4-one] | 265 to 267 | 0.1 to 0.3 | **** (an EC1.5x≤0.3 μM is indicated by four stars (****)) | ***** (a fold increase >1.65 is indicated by five stars (*****))
CCN1CCC(c2ccc3nc(-c4cc5c(C)nc(C)cn5n4)cc(=O)n3n2)CC1 [Compound 514, 2-(4,6-dimethylpyrazolo[1,5-a]pyrazin-2-yl)-7-(1-ethylpiperidin-4-yl)-4H-pyrimido[1,2-b]pyridazin-4-one] | 283 to 285 | 0.1 to 0.3 | ** (an EC1.5× between >1 μM and ≤3 μM is indicated by two stars (**)) | ***** (a fold increase >1.65 is indicated by five stars (*****))
Cc1cn2nc(-c3cc(=O)n4cc(N5CCC6NCCC6C5)ccc4n3)cc2c(C)n1 (centres unmarked) [Compound 515, 2-(4,6-dimethylpyrazolo[1,5-a]pyrazin-2-yl)-7-(octahydro-5H-pyrrolo[3,2-c]pyridin-5-yl)-4H-pyrido[1,2-a]pyrimidin-4-one] | 198 to 200 | < 0.1 | **** (an EC1.5x≤0.3 μM is indicated by four stars (****)) | ***** (a fold increase >1.65 is indicated by five stars (*****))
Cc1cn2cc(-c3cc(=O)n4cc(C5CCNCC5)ccc4n3)cc(Cl)c2n1 [Compound 516, 2-(8-chloro-2-methylimidazo[1,2-a]pyridin-6-yl)-7-(piperidin-4-yl)-4H-pyrido[1,2-a]pyrimidin-4-one] | 287 to 293 | < 0.1 | **** (an EC1.5x≤0.3 μM is indicated by four stars (****)) | **** (a fold increase between >1.5 and ≤1.65 is indicated by four stars (****))
CCN1CCC(c2ccc3nc(-c4cc(Cl)c5nc(C)cn5c4)cc(=O)n3c2)CC1 [Compound 518, 2-(8-chloro-2-methylimidazo[1,2-a]pyridin-6-yl)-7-(1-ethylpiperidin-4-yl)-4H-pyrido[1,2-a]pyrimidin-4-one] | 240 to 246 | < 0.1 | **** (an EC1.5x≤0.3 μM is indicated by four stars (****)) | **** (a fold increase between >1.5 and ≤1.65 is indicated by four stars (****))
Cc1cn2cc(-c3cc(=O)n4cc(C5CCN(C(C)C)CC5)ccc4n3)cc(Cl)c2n1 [Compound 519, 2-(8-chloro-2-methylimidazo[1,2-a]pyridin-6-yl)-7-[1-(propan-2-yl)piperidin-4-yl]-4H-pyrido[1,2-a]pyrimidin-4-one] | 279 to 285 | < 0.1 | **** (an EC1.5x≤0.3 μM is indicated by four stars (****)) | ***** (a fold increase >1.65 is indicated by five stars (*****))
CN1CCC(c2ccc3nc(-c4ccc5nn(C)cc5c4)cc(=O)n3n2)CC1 [Compound 522, 2-(2-methyl-2H-indazol-5-yl)-7-(1-methylpiperidin-4-yl)-4H-pyrimido[1,2-b]pyridazin-4-one] | 260 to 262 | < 0.1 | *** (an EC1.5× between >0.3 μM and ≤1 μM is indicated by three stars (***)) | ***** (a fold increase >1.65 is indicated by five stars (*****))
